Test results as given in patent publication US20070161052A1, “TRPM5 based assays and the use thereof for the identification of modulators of sweet, bitter or umami (savory) taste” (SENOMYX, INC., priority 2005, published 2007).
“Also recorded” adds a separate entry of the source.

Columns and labels:
hTRPM5 = target: T1, hTRPM5 (Homo sapiens, UniProt Q9NZQ8); test: hTRPM5 membrane potential dye FLIPR assay in HEK-293 cells (transient or stable clone); format: cell-based; settings: for change in membrane potential in hTRPM5-expressing HEK293 cells: agonist of an expressed receptor (endogenous muscarinic, transfected H1 or AT1) or Ca2+ ionophore, dye R-8034; for dependence of agonist-induced change in membrane potential on extracellular Na+: NaCl versus NMDG replacement; for change in membrane potential in hTRPM5-expressing cells not transfected with the agonist's receptor: unrelated agonist control
T1 construct: expressed in transfected cells
T1 sequence (Q9NZQ8 1-1165): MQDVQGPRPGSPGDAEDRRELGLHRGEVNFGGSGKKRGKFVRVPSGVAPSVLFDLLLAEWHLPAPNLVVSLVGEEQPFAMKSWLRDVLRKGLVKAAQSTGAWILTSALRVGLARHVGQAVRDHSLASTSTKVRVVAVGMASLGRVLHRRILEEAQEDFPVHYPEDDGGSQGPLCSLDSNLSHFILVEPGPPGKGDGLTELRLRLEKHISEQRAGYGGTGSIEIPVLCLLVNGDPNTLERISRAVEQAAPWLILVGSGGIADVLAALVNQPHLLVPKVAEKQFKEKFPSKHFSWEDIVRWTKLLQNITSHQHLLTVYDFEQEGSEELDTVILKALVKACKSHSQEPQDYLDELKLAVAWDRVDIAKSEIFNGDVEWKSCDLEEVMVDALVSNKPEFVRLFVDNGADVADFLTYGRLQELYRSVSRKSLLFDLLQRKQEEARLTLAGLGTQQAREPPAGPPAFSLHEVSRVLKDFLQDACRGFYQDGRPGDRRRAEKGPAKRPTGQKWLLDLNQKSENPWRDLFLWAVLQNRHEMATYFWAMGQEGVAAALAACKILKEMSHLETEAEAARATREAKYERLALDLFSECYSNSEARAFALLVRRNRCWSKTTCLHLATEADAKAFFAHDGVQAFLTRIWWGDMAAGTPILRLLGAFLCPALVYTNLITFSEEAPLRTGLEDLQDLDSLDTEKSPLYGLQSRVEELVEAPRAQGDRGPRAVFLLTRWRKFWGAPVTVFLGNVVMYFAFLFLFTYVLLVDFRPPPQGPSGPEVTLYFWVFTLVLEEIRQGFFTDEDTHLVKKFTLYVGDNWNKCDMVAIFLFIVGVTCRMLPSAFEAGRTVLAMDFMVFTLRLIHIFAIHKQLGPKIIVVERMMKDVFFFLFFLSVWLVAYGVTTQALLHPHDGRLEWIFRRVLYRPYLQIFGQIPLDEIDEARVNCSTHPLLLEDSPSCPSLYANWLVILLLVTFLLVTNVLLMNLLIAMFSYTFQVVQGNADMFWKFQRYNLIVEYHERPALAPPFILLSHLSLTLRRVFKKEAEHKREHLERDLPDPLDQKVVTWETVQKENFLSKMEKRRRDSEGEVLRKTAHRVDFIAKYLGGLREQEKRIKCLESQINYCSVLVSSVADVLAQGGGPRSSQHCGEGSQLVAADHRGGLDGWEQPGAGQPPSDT
Method: (§1) HEK-293 cells (about 50-70% confluency) contained in 10 cm dishes are transfected with 5 μg of TRPM5 DNA and pcDNA3 and 2 μg of RFP plasmids using TransH293.
(§2) After 24 hours, the cells are split into 384-well plates at ˜50,000 cells/well.
(§3) At 48 hours post-transfection the cells are loaded with membrane potential dyes in HBSS for 60 minutes at room temperature.
Compounds plates are prepared in HBSS.
HEK-293 cells transfected with TRPM5 nucleic acid sequence containing plasmid that comprises neo marker and stable cell clones are selected using neomycin.
Screened clones are screened using membrane potential dyes and FLIPR, for a GPCR-induced change in membrane potential.
This experiment is contained in FIG. 10. In the experiment HEK293 cells were transfected with a plasmid encoding hTRPM5 in pcDNA3.Neo. 48 hours later cells were put in selection media (500 ug/ml neomycin) and stable clones were selected and expanded. Clone #51 was further characterized for carbachol-induced hTRPM5 activation. Cells were loaded with a membrane potential dye (R-8034; Molecular Devices Corporation). […]

mouse TRPM5 = target: T2, mouse TRPM5 (Mus musculus, UniProt Q9JJH7); test: Mouse TRPM5 membrane potential dye assay in transfected HEK293 cells; format: cell-based; settings: for change in membrane potential in mouse TRPM5-expressing HEK293 cells: agonist of an expressed receptor or Ca2+ ionophore, dye R-8034; for change in membrane potential in mouse TRPM5 cells not transfected with the agonist's receptor: unrelated agonist control
T2 construct: expressed in transfected cells; host or cells: HEK293, in some experiments co-transfected with the AT1 or H1 receptor or stably expressing mT2R5 and Galpha15
T2 sequence (Q9JJH7 1-1158): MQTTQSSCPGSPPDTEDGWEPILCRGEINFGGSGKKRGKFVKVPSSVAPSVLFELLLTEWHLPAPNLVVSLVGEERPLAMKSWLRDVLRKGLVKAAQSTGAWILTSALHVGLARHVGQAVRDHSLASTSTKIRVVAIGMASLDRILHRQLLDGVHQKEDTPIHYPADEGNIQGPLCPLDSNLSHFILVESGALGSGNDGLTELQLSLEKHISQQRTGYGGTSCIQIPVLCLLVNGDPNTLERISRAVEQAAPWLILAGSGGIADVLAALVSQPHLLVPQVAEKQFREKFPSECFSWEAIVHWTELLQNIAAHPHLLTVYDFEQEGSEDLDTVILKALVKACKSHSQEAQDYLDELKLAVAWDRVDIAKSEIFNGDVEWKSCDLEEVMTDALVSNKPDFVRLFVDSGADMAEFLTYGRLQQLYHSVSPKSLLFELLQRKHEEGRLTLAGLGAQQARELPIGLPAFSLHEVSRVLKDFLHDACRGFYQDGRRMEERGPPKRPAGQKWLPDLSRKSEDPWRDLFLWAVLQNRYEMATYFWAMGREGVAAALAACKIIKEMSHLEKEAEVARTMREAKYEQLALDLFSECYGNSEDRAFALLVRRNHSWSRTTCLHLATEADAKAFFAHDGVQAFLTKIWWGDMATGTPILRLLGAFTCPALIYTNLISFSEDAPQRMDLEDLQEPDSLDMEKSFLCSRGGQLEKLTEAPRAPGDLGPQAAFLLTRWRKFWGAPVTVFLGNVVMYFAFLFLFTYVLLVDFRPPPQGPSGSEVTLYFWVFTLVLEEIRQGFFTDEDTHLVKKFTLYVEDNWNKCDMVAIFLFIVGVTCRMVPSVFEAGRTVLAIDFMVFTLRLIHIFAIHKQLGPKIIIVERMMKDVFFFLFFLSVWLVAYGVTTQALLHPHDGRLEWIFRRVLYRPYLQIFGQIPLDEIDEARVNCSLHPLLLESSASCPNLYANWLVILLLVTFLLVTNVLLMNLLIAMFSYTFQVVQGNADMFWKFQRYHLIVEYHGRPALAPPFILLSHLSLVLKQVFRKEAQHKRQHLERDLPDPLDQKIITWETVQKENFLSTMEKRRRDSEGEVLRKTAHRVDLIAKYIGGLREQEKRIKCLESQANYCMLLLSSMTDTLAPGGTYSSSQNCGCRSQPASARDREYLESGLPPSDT
Method: as §1, §2, §3
This experiment contained in FIG. 8 compares mTRPM5 responses to the calcium ionophore ionomycin and various GPCR agonists. As shown in the left top panel HEK293 cells were transfected with a plasmid encoding mouse TRPM5 (red trace) or a control plasmid (pUC; blue trace). 48 hours later cells were loaded with a membrane potential dye (R-8034; Molecular Devices Corporation).
This experiment contained in FIG. 9 compares hTRPM5 and mTRPM5 responses to GPCR agonist compounds. As shown in the left panel HEK293 cells stably expressing the cycloheximide bitter receptor mT2R5 and the promiscuous G protein G[…]15 were transfected with a plasmid encoding for mouse TRPM05 or a control plasmid (pUC). 48 hours later cells were loaded with a membrane potential dye (R-8034; Molecular Devices Corporation).

[1] = system: HEK293 cells lacking hTRPM5; test: Membrane potential dye assay in HEK293 cells lacking hTRPM5 (control plasmid pUC); format: cell-based, human; settings: agonist stimulation
Method: (§4) As shown in the Left Panel: HEK293 cells were transfected with a plasmid encoding hTRPM5. 48 hours later cells were loaded with either a membrane potential dye (Molecular Devices Corporation; R-8034 or DisBAC) or a Ca^2+-sensitive dye (Fluo3). […] As shown in the Right Panel: HEK293 cells were transfected with a control plasmid (pUC) and treated as described above.
This experiment the results of which are shown in FIG. 5 evaluated TRPM5 induced changes in membrane potential. As shown in the left panel HEK293 cells were transfected with plasmids encoding the H1 histamine receptor with (red trace) or without (blue trace) a plasmid encoding hTRPM5. 48 hours later cells were loaded with a membrane potential dye (R-8034; Molecular Devices Corporation).
(§5) In this experiment the results of which are contained in FIG. 11 a library of ˜15,000 compounds (10 uM) was screened for hTRPM5 modulators using clone #51 (described in FIG. 10). In our initial screening conditions hTRPM5 was maximally stimulated with carbachol, using concentrations of 50 uM to 100 uM.

Ca^2+ mobilization = test: Ca2+ mobilization with Ca2+-sensitive dye (Fluo3) in HEK293 cells; format: cell-based, human
Method: as §4
This experiment the results of which are contained in FIG. 7 compared TRPM5 responses to the Ca++ ionophore ionomycin. As shown in the left panel HEK293 cells were transfected with a plasmid encoding hTRPM5. 48 hours later cells were loaded with either a membrane potential dye (R-8034; Molecular Devices Corporation) or a Ca^2+-sensitive dye (Fluo3).
as §5

Row | Compound | change in membrane potential in hTRPM5-expressing HEK293 cells (hTRPM5) | change in membrane potential in mouse TRPM5-expressing HEK293 cells (mouse TRPM5) | dependence of agonist-induced change in membrane potential on extracellular Na+ (hTRPM5) | change in membrane potential in hTRPM5-expressing cells not transfected with the agonist's receptor (hTRPM5) | change in membrane potential in mouse TRPM5 cells not transfected with the agonist's receptor (mouse TRPM5) | change in membrane potential in cells lacking hTRPM5 [1] | change in membrane potential in mT2R05 / G15 stable HEK293 cells transfected with human TRPM5 (hTRPM5; versus pUC control) | change in membrane potential in mT2R5 / G15 stable HEK293 cells transfected with mouse TRPM5 (mouse TRPM5; versus pUC control) | Ca^2+ response in hTRPM5-transfected HEK293 cells (Ca^2+ mobilization) | hTRPM5 activity produced (hTRPM5; 2 um carbachol) | Ca^2+ response in control plasmid (pUC) transfected HEK293 cells (Ca^2+ mobilization)
1 | CNc1ccc2oc(C[C@H]3O[C@@]4(CC[C@H]3C)O[C@H]([C@H](C)C(=O)c3ccc[nH]3)[C@H](C)C[C@H]4C)nc2c1C(=O)O [A-23187] | TRPM5-dependent changes in membrane potential | TRPM5-dependent changes in membrane potential | – | – | – | – | – | – | – | – | –
2 | angiotensin II (DRVYIHPF) [AT1 angiotensin II receptor agonist] | dose-dependent increase in membrane potential | dose-dependent increase in membrane potential | only observed in the presence of NaCl | did not have any effect | had no effect | no significant change in membrane potential | – | – | – | – | –
3 | NCCc1c[nH]cn1 [histamine] | dose-dependent increase in membrane potential | dose-dependent increase in membrane potential | only observed in the presence of NaCl | has no effect | did not have any effect | no significant change in membrane potential | – | – | – | – | –
4 | C[C@@H]1C[C@@H]([C@H](O)CC2CC(=O)NC(=O)C2)C(=O)[C@@H](C)C1 [cycloheximide] | – | – | – | – | – | – | dose-dependent increase in membrane potential that is much greater than what is seen in cells not expressing human TRPM5 | dose-dependent increase in membrane potential that was much greater than what is seen in cells not expressing mouse TRPM5 | – | – | –
5 | C[C@H](CCC(=O)O)C[C@H](C)C[C@H](C)C(=O)/C=C(\O)[C@H](C)C[C@H](C)C/C=C/[C@@H](C)[C@@H](O)[C@@H](C)[C@@H](O)C[C@@H]1CC[C@@](C)([C@H]2CC[C@@](C)([C@@H](C)O)O2)O1 [ionomycin] | concomitant increase in membrane potential; also recorded: dose-dependent increase in membrane potential that is noticeably greater in hTRPM5-expressing cells; also recorded: TRPM5-dependent changes in membrane potential | dose-dependent increase in membrane potential that is significantly greater in mouse-TRPM5 transfected cells; also recorded: TRPM5-dependent changes in membrane potential | – | – | – | – | – | – | leads to Ca^2+ influx | – | –
6 | C[N+](C)(C)CCOC(N)=O [carbachol] | concomitant increase in membrane potential; also recorded: dose-dependent increase in membrane potential; also recorded: dose-dependent increase in membrane potential that is much greater than what is seen in cells not expressing hTRPM5 | dose-dependent increase in membrane potential | only observed in the presence of NaCl | – | – | no change in membrane potential is observed; also recorded: no significant change in membrane potential | – | – | leads to Ca^2+ mobilization | 10-25% | a significant increase in Ca^2+ is triggered
